Assay results taken from article PMC3075623 (2011).

Target: T1, ABL2 (ABL-related gene, ARG) (Homo sapiens, UniProt P42684)
T1 sequence (P42684 279-546): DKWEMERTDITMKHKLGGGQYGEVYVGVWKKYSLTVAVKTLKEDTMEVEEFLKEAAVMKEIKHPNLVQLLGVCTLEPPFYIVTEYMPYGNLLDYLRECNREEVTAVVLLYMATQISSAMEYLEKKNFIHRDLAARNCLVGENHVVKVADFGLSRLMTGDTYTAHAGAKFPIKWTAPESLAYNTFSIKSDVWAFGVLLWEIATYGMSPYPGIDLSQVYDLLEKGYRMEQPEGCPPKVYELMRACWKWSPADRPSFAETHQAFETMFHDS
Experiment: cocrystal structure
Assay type: binding

## Nc1nc(Nc2ccc(S(N)(=O)=O)cc2)nn1C(=S)Nc1c(F)cccc1F [compound 2, 5-amino-3-((4-(aminosulfonyl)phenyl)amino)-N-(2,6-difluorophenyl)-1H-1,2,4-triazole-1-carbothioamide]
  cocrystal structure: The ligand is bound to the protein by hydrogen bonds to the backbone carbonyls of residues Glu362 and Met364
